Data: patent publication US6287840A (Axys Pharmaceuticals, Inc., priority 1999, dated 2001)

Experiments:
[1] = system: P. carinii; experiment: Growth of P. carinii in vitro; format: cell-based; conditions: 10 mM each
Protocol: Mu-Leu-HphVSPh and Mu-Phe-LysVSPh.HBr were evaluated for their effects on the growth of P. carinii in vitro, according to the procedure of M. S. Bartlett et al. [Antimicrotubule Benzimidazoles Inhibit In Vitro Growth of P. carinii, M. S. Bartlett, T. D. Edlind, M. M. Durkin, M. M. Shaw, S. F. Queener, and J. W. Smith, (1992) Antimicrobial Agents and Chemotherapy, 36, 779-782; Antimicrobial susceptibility of P. carinii in culture, M. S. Bartlett, R. Eichholtz, and J. W. Smith (1985) Diagn. Microbiol. Infect. Dis.; 3, 381-387. Mu-Leu-HphVSPh and Mu-Phe-LysVSPh.HBr (10 mM each) inhibited the growth of P. carinii 64% and 50% respectively.

[2] = molecular target: T1, Cloned cathepsin S (Homo sapiens, UniProt P25774); experiment: Inhibition of cathepsin S, Z-Val-Val-Arg-AMC fluorescence progress curves; format: biochemical; conditions: values marked *; 25° C., pH 6.5
T1 construct: made in house
T1 sequence (P25774 115-331): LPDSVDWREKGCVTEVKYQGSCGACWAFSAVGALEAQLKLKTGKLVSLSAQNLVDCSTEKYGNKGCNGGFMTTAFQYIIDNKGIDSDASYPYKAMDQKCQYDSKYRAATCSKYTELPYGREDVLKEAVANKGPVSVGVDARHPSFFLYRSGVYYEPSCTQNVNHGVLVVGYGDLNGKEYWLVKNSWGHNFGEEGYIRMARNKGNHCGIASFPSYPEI
In short: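 Progress curves at 25 °C in 100 mM phosphate pH 6.5, 2.5 mM DTT, 2.5 mM EDTA, 0.01% Triton, enzyme <1 nM, 10 μM substrate, inhibitors 30-0.001 μM; AMC fluorescence ex 380/em 460 nm. kobs from nonlinear fits gave kobs/[I]; selected compounds yielded kirr, KI (substrate-corrected), kirr/KI.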

[3] = molecular target: T2, Cathepsin B from human placenta (Homo sapiens, UniProt P07858); experiment: Inhibition of cathepsin B, Z-Arg-Arg-AMC fluorescence progress curves; format: biochemical; conditions: 25° C., pH 6.2
T2 construct: Cathepsin B from human placenta, obtained from Sigma; purchased Sigma; host or cells: human placenta (tissue)
In short: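 Human placental enzyme (~10 nM) in 50 mM phosphate pH 6.2 with 2.5 mM DTT and 2.5 mM EDTA, 50 μM Z-Arg-Arg-AMC, inhibitors 30-0.001 μM, 25° C. AMC fluorescence (ex 380/em 460 nm) progress curves fitted for kobs; kobs/[I] reported, with kirr, KI and kirr/KI substrate-corrected for selected compounds.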

[4] = system: mouse malarial parasite Plasmodium vinckei; experiment: In vitro protease activity of malarial parasite, substrate Z-Phe-Arg-AMC; format: biochemical; conditions: cells printed in nM; read-out: P. vinckei IC50 (murine)
Text: (§1) The following table summarizes the comparative IC50 values for selected cysteine protease inhibitors against the human malarial parasite Plasmodium falciparum and the mouse malarial parasite Plasmodium vinckei. The substrate used to measure in vitro protease activity was Z-Phe-Arg-AMC.

[5] = system: human malarial parasite Plasmodium falciparum; experiment: as above; format: biochemical; conditions: cells printed in nM; read-out: P. falciparum IC50 (human)
Text: as §1

[6] = system: T. cruzi; experiment: T. cruzi infected irradiated J774 cells; format: cell-based; parameters: dose or concentration left out as unconfirmed; conditions: thereafter without inhibitor; compounds listed in decreasing order of effectiveness
Protocol: Irradiated J774 cells were infected with T. cruzi and simultaneously treated with […] of peptidyl vinyl derivatives for 5 days; thereafter without inhibitor. The following compounds were effective in decreasing order: Mu-Phe-ArgVSPh, Boc-Tyr(I2)-HphVSPh, Mu-Phe-VaIVSPh, Boc-Tic-HphVSPh, Mu-Phe-Ser(OBzl)VSPh, Mu-Leu-HphVSPh, Mu-Tyr(I2)-HphVSPh, Mu-Phe-LysVSPh, Mu-Tic-HphVSPh.

[7] = Stability of selected inhibitors toward glutathione (Ellmans reagent); format: physicochemical; conditions: inhibitor 5 mM, GSH 0.3 mM, pH=6.2, 20° C.
Protocol: The inhibitors (5 mM) were incubated with glutathione (GSH) (0.3 mM) in phosphate buffer (50 mM) at pH=6.2 containing 15% DMF at 20° C. Periodically, 50 μL samples were added to 1 mL of buffer and treated with 10 μL of 30 mM Ellmans reagent and the absorbance measured at 412 nm.

[8] = molecular target: cruzain, from T. cruzi (Trypanosoma cruzi, UniProt P25779); experiment: Inhibition of cruzain, as for cathepsin L; format: biochemical; conditions: values marked *
Sequence of cruzain, from T. cruzi (P25779 123-337 limits assumed): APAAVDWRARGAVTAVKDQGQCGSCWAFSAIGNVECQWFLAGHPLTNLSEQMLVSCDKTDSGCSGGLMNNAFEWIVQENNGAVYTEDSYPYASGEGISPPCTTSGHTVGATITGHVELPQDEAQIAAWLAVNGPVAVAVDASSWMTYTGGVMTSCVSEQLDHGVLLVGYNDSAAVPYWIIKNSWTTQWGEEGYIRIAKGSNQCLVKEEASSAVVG
In short: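 Run as for cathepsin L with 1 nM cruzain in 50 mM phosphate pH […], 2.5 mM DTT, 2.5 mM EDTA, 5 μM Z-Phe-Arg-AMC, at 25 °C, inhibitors 30-0.001 μM; fluorescence (ex 380/em 460 nm) followed continuously. kobs fitted from progress curves and kobs/[I] reported; selected compounds gave kirr, KI, kirr/KI, with KI corrected by (1+[S]/Km).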

[9] = molecular target: T3, Cathepsin L from rat liver (Rattus norvegicus, UniProt P07154); experiment: Inhibition of cathepsin L, Z-Phe-Arg-AMC fluorescence progress curves; format: biochemical
T3 construct: Cathepsin L from rat liver; from tissue; host or cells: rat liver
T3 sequence (P07154 114-288 limits assumed): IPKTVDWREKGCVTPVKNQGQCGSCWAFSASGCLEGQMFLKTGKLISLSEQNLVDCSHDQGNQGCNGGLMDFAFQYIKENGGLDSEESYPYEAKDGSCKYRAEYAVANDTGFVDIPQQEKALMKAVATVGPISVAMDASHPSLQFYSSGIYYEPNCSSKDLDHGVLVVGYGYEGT
T3 sequence (P07154 291-334 limits assumed): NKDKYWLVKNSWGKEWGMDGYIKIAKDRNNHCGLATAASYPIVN
In short: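 Progress curves of AMC release (380/460 nm) over at least 3 inactivation half-times were fitted to kobs, reported as kobs/[I] or, via 1/[I] vs 1/kobs, kirr, KI (substrate-corrected) and kirr/KI.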

[10] = system: calpain; experiment: Inhibition (inactivation) of calpain, Suc-Leu-Tyr-AMC; format: biochemical; conditions: values marked * (or %); pH 7.5, 5 mM CaCl2, 25° C.
Protocol: The inhibitors were tested against calpain at 1 or 2% as for the other enzymes. The reaction conditions were 50 mM Tris, pH 7.5, 5 mM CaCl2, 2.5 mM DTT, assayed at 25° C. The substrate was 100 μM Suc-Leu-Tyr-AMC.

kobs /[I]* (approximate second-order inactivation constant) [2]: 10,700,000 M^-1 sec^-1
kobs /[I]* (approximate second-order inactivation constant) ([3]; values marked *): 11,300 M^-1 sec^-1
k/KI (kirr/KI) ([3]; values without asterisk): 11,700 M^-1 sec^-1
IC50 [4]: 60 nM
IC50 [5]: 100 nM
second order rate constant for the loss of GSH [7]: 0.00055 M⁻¹ s⁻¹
kobs /[I]* (approximate second-order inactivation constant) [8]: 149,000 M^-1 sec^-1
kirr [9]: 0.16 s⁻¹
Ki ([9]; corrected for substrate): 1400 nM
kobs /[I]* (approximate second-order inactivation constant) ([9]; values marked *, 25° C., pH 6.2): 220,000 M^-1 sec^-1
k/KI (kirr/KI) ([9]; values without asterisk, 25° C., pH 6.2): 110,000 M^-1 sec^-1
Structure (SMILES): Br.NCCCC[C@@H](/C=C/S(=O)(=O)c1ccccc1)NC(=O)[C@H](Cc1ccccc1)NC(=O)N1CCOCC1 [Mu-Phe-LysVSPh.HBr, (G)-(E)-7-amino-3-(4-morpholinecarbonylphenylalanyl)amino-1-phenylsulfonyl-1-heptene hydrobromide]
inhibition of the growth of P. carinii [1]: 50%
effectiveness against T. cruzi in J774 cells [6]: effective
kobs /[I]* [10]: < 50 M⁻¹ s⁻¹
